{"source": "patent US20250027930A1", "about": "“SMALL MOLECULES FOR REPROGRAMING ANTI-TUMOR IMMUNITY OF T CELLS” (THE SCRIPPS RESEARCH INSTITUTE, priority 2021, published 2025)", "key": {"CD8+ OT-I T cells": {"tested_on": "CD8+ OT-I T cells", "experiment": "OT-I splenocyte culture with K-Ras(G12C) inhibitors", "type": "cell-based, mouse", "conditions": "5 μM"}, "hPBMCs [1]": {"tested_on": "hPBMCs", "experiment": "Donor hPBMC expansion with irradiated feeder cells", "type": "cell-based, human", "conditions": "2 μM", "description": "(FIG. 9A) Donor hPBMCs were activated twice with irradiated (50 Gy) feeder cell mixture, initially on day 0 and then similarly on day 6. […] (FIG. 9C) Gated CD8^+ hPBMCs were analyzed for the expression of inhibitory receptors Tim-3 and PD-1 (terminally exhausted phenotype downregulation not statistically significant in either donor). (FIG. 9D) the expression of Tim-3 and TCF-1. (FIG. 9E) the expression of CCR7 and CD45RA.\nDonor hPBMC cells were co-cultured 1:1 with an irradiated (50 Gy) mixture of hPBMCs from five different donors (henceforth, feeder cells). Irradiation arrests cell division, yet these feeder cells retain the ability to provide extracellular secretions to help donor cells proliferate. Cytokine signaling and HLA mismatch provides for robust donor hPBMC activation. Donor hPBMCs were activated twice with the irradiated feeder cell mixture, initially on day 0 and then similarly on day 6 (FIG. 9A). Beginning on day 0, donor hPBMCs were continuously cultured with 300 IU/mL IL2 and with or without K-Ras(G12C) inhibitor 12 (2 μM) (FIG. 9A)."}, "hPBMCs [2]": {"tested_on": "hPBMCs", "experiment": "Donor hPBMC expansion with irradiated feeder cells", "type": "cell-based, human", "conditions": "2 μM", "remark": "listed apart in the source"}, "anti-GD2 CAR-T cells": {"tested_on": "anti-GD2 CAR-T cells", "experiment": "Anti-GD2 CAR-T cell expansion with Inhibitor 9/12, phenotype and cell number", "conditions": "for expression of inhibitory receptors (PD-1, LAG3, Tim-3 and CD39) of anti-GD2 CAR-T cells / progenitor features of anti-GD2 CAR-T cells: Inhibitor 9 at 2 or 3 uM, Inhibitor 12 at 1 or 2 uM, day 15"}, "M8 tetramer+ CD8+ TILs": {"tested_on": "M8 tetramer+ CD8+ TILs", "experiment": "Rapid expansion of M8 tetramer+ CD8+ TILs from MC38 tumors", "type": "cell-based, mouse", "conditions": "5 μM", "description": "We further observed that K-Ras(G12C) inhibitor 12 prevents the generation of terminally exhausted (PD-1^+, Tim-3^+) antigen-specific CD8^+ tumor infiltrating lymphocytes (TILs) and facilitates production of progenitor-like (Tpex, Tim-3^−, TCF-1^+) antigen-specific CD8^+ TILs during in vitro expansion. Specifically, to elucidate the ability of K-Ras(G12C) inhibitor 12 to modulate properties of tumor infiltrating lymphocytes (TILs) in vitro, we utilized an MC38 murine colonic cancer model. C57BL/6J (B6) mice were inoculated with MC38 cells. Tumors were grown for 14 days and then harvested. Antigen specific (H-2K^b-restricted MuLV p15E604-611-specific, henceforth M8 tetramer^+) CD8^+ TILs were isolated. M8 tetramer^+ CD8^+ TILs were subjected to rapid expansion. On day 1 of rapid expansion, TILs were added 1:100 with irradiated BALB/c splenocytes and incubated with 1500 IU/mL IL2 for proliferation, […] anti-CD3 (mouse) antibody for activation, and with or without K-Ras(G12C) inhibitor 12 (5 μM)."}, "OT-I splenocytes": {"tested_on": "OT-I splenocytes", "experiment": "OT-I splenocyte culture with KRAS (G12C) inhibitors 9/12 and analogues", "type": "cell-based, mouse", "conditions": "added D0 at 5 uM or D3 at 5 uM or 10 uM, kept till day 7", "description": "We performed additional studies to examine the observed activities of KRAS (G12C) inhibitors in modulating T cell properties. First, OT-I splenocytes were activated with OVA257-264 peptide (500 nM) for 3 days in the presence of 60 IU/mL IL-2 and cultured for another 7 days. Inhibitor 9 (i9) or inhibitor 12 (i12) was added on Day0 (D0) upon activation at 5 uM and the concentration was kept till day 7 or added on Day3 (D3) after activation at 5 uM or 10 uM and the concentration was kept till day 7 for analysis.\nOther than inhibitors 9 and 12, we also tested activities of two analogues of these KRAS (G12C) inhibitors. The analogues, Z7 and Z6, are derived from Inhibitor 9 and Inhibitor 12, respectively. They have an alkynyl group for click reaction which is used for ABPP analysis to find the targets of the inhibitors (FIG. 18A). In the studies, OT-I splenocytes were activated with OVA257-264 peptide (500 nM) for 3 days in the presence of 60 IU/mL IL-2 and cultured for another 7 days. 5 uM […], i9, z6 or z7 were added on Day0 (DO) upon activation.\nAs noted above, Inhibitor 9 and Inhibitor 12 have a cysteine-reactive group ([…] and acrylamide) that allows covalent binding of i9 and i12 to a cysteine residue in proteins. We further tested two analogue compounds, ZT-1 and ZT-2, that are not capable of forming the covalent binding. […] Cell number was recorded on day 5 and day 7. […]"}, "P14 cells": {"tested_on": "P14 cells", "experiment": "P14 splenocyte in vitro activation, re-stimulation and expansion", "type": "cell-based, mouse", "conditions": "80 mM; for Fold of proliferation, Normalized to W/O: P14 cells"}, "OT-1 cells": {"tested_on": "OT-1 cells", "experiment": "OT-I-Tcf7GFP splenocyte screen: proliferation and Tim3−TCF-1+ ratio", "type": "cell-based, mouse", "conditions": "Day7, 80 mM", "description": "Cell number was recorded on day 3 and day 7. On day 7, cells were stained with anti-CD8a (PerCP-Cy5.5) and anti-Tim3 (BV421) antibodies for flow cytometry or plate reader analysis.\nBecause TCF1 expression positively correlates with T cell stemness, the greater signal of EGFP a T cell expresses, the less differentiated the T cell is. Furthermore, if the compound also facilitates T cells proliferation, there would be more T cells per well in comparison to the untreated control. Therefore, a compound that not only maintains TCF-1 expression but also facilitates T cell growth would produce the strongest green fluorescence intensity. […] GlcA stands for glucuronic acid."}, "P14 CD8+ T cells": {"tested_on": "P14 CD8+ T cells", "type": "in vivo, mouse"}, "[3]": {"tested_on": "MC38 TSA-reactive CD8+ TILs", "experiment": "Rapid expansion of TSA-reactive CD8+ TILs from MC38 tumors", "type": "cell-based, mouse", "description": "Sugars were added at the beginning or during the expansion of the TILs, and kept till the end of expansion. On expansion day 9, phenotypes of the expanded T cells were assessed, and the cells were used for adoptive transfer (FIG. 6E). For adoptive transfer, 0.5 million cells (B16-OVA or MC38) were inoculated subcutaneously on each mouse on day 0, Listeria monocytogenes-OVA (LM-OVA) infection 0.5 million CFU/mice on day 1, and blood analysis was recorded on day 7."}, "OVA-specific TILs": {"tested_on": "OVA-specific TILs", "experiment": "In vivo expansion of expanded OVA-specific TILs after LM-OVA challenge", "design": "species or system mouse", "conditions": "naïve mice; vs T cells expanded without added sugars"}}, "data": [{"molecule": "C=CC(=O)N1CCN(C(=O)CNc2cc(I)c(Cl)cc2O)CC1", "note": "[K-Ras(G12C) inhibitor 12]", "values": [{"measurement": "cell expansion", "setting": "CD8+ OT-I T cells; OT-I", "value": "does not compromise cell expansion"}, {"measurement": "generation of progenitor-like T cells", "setting": "CD8+ OT-I T cells; OT-I culture model", "value": "effectively promoted the generation of progenitor-like T cells"}, {"measurement": "terminally exhausted (PD-1^+, Tim-3^+) CD8^+ OT-I T cells", "setting": "CD8+ OT-I T cells; day 5, untreated 23.8%", "value": "about 0.46%"}, {"measurement": "progenitor-like phenotype (Tim-3^−, TCF-1^+) CD8^+ OT-I T cells", "setting": "CD8+ OT-I T cells; day 5, untreated 38.6%", "value": 91.6, "unit": "%"}, {"measurement": "terminally exhausted (PD-1^+, Tim-3^+) CD8^+ hPBMCs", "setting": "hPBMCs [1]; day 13, donor 3, untreated 3.52%", "value": 2.6, "unit": "%"}, {"measurement": "terminally exhausted (PD-1^+, Tim-3^+) CD4^+ hPBMCs", "setting": "hPBMCs [1]; day 13, donor 3, untreated 15.7%", "value": 0.83, "unit": "%"}, {"measurement": "progenitor-like phenotype (Tim-3^−, TCF-1^+) CD8^+ hPBMCs", "setting": "hPBMCs [1]; day 13, donor 3, untreated 15.9%", "value": 51.5, "unit": "%"}, {"measurement": "terminally exhausted (PD-1^+, Tim-3^+) CD8^+ hPBMCs", "setting": "hPBMCs [1]; day 13, donor 4, untreated 5.01%", "value": 3.27, "unit": "%"}, {"measurement": "progenitor-like phenotype (Tim-3^−, TCF-1^+) CD8^+ hPBMCs", "setting": "hPBMCs [1]; day 13, donor 4, untreated 6.78%", "value": 39.7, "unit": "%"}, {"measurement": "CD8^+ terminally differentiated effector memory cells (TEMRA, CCR7^−, CD45RA^+)", "setting": "hPBMCs [1]; donor 3 and donor 4", "value": "downregulated"}, {"measurement": "stem-like memory CD8^+ T cells (TSCM, CCR7^+, CD45RA^+)", "setting": "hPBMCs [1]; donor 3 and donor 4", "value": "produced less-differentiated stem-like memory CD8^+ T cells"}, {"measurement": "mean cell expansion", "setting": "hPBMCs [1]; hPBMCs from both donors", "value": "no statistically significant compromise"}, {"measurement": "TEMRA (donor 3) or TEM (donor 4) CD4^+ hPBMCs", "setting": "hPBMCs [2]", "value": "downregulated"}, {"measurement": "stem-like memory CD4^+ T cells (TSCM, CCR7^+, CD45RA^+)", "setting": "hPBMCs [2]", "value": "upregulated"}, {"measurement": "progenitor-like phenotype (Tim-3^−, TCF-1^+) CD4^+ hPBMCs", "setting": "hPBMCs [2]; day 13, donor 3, untreated 33.3%", "value": 78.4, "unit": "%"}, {"measurement": "terminally exhausted (PD-1^+, Tim-3^+) CD4^+ hPBMCs", "setting": "hPBMCs [2]; day 13, donor 4, untreated 14.7%", "value": 7.9, "unit": "%"}, {"measurement": "progenitor-like phenotype (Tim-3^−, TCF-1^+) CD4^+ hPBMCs", "setting": "hPBMCs [2]; day 13, donor 4, untreated 53.3%", "value": 78.7, "unit": "%"}, {"measurement": "expression of inhibitory receptors (PD-1, LAG3, Tim-3 and CD39) of anti-GD2 CAR-T cells", "setting": "anti-GD2 CAR-T cells", "value": "decreased the expression of inhibitory receptors"}, {"measurement": "progenitor features of anti-GD2 CAR-T cells", "setting": "anti-GD2 CAR-T cells", "value": "increased progenitor features"}, {"measurement": "CD8+ cells displaying the terminally exhausted phenotype (PD-1^+ Tim-3^+)", "setting": "M8 tetramer+ CD8+ TILs; day 8 post rapid expansion, untreated 79.4%", "value": 29.2, "unit": "%"}, {"measurement": "cell expansion", "setting": "M8 tetramer+ CD8+ TILs; day 8 post-expansion, pre-expansion 0.1×10^6, untreated 1.18×10^6, n=1", "value": "0.397×10^6 TILs"}, {"measurement": "CD8^+ cells displaying the progenitor-like phenotype (Tim-3^−, TCF-1^+)", "setting": "M8 tetramer+ CD8+ TILs; post-expansion, untreated 0.076%", "value": 12.8, "unit": "%"}, {"measurement": "expression of inhibitory receptors (Tim-3+PD-1)", "setting": "OT-I splenocytes", "value": "decreased"}]}, {"molecule": "OC[C@H]1O[C@@](CO)(O[C@H]2O[C@H](CO)[C@@H](O)[C@H](O)[C@H]2O)[C@@H](O)[C@@H]1O", "note": "[Sucrose, sucrose]", "values": [{"measurement": "Fold of proliferation, Normalized to W/O", "setting": "P14 cells; Day6", "value": 1.80, "unit": "fold"}, {"measurement": "Tim3^−TCF-1^+ ratio of CD8^+ T cells (%)", "setting": "P14 cells; Day6, w/o 55.0", "value": 89.8, "unit": "%"}, {"measurement": "Fold of proliferation, Normalized to W/O", "setting": "P14 cells; Day9", "value": 2.85, "unit": "fold"}, {"measurement": "Tim3^−TCF-1^+ ratio of CD8^+ T cells (%)", "setting": "P14 cells; Day9, w/o 3.5", "value": 48.6, "unit": "%"}, {"measurement": "Tim3^−TCF-1^+ ratio of CD8^+ T cells (%)", "setting": "OT-1 cells; w/o 2.6", "value": 41.2, "unit": "%"}, {"measurement": "activity at 80000 µM", "setting": "OT-1 cells; Mus musculus, Splenocyte, 168 h, OT-1 cells, read-out: Proliferation fold, Normalized to W/O", "value": 86, "unit": "%"}, {"measurement": "percentages and total numbers of expanded virus-specific P14 CD8+ T cells in the blood", "setting": "P14 CD8+ T cells; 7 dpi LCMV-Cl13, cells pre-treated in vitro, vs co-transferred untreated P14 cells", "value": "significantly higher"}, {"measurement": "percentages and total numbers of expanded virus-specific P14 CD8+ T cells in the spleen and liver", "setting": "P14 CD8+ T cells; 14 dpi LCMV-Cl13, cells treated in vitro, vs untreated", "value": "significantly higher"}, {"measurement": "cell surface anti-CLA (Cutaneous Lymphocyte-associated Antigen) staining", "setting": "[3]", "value": "significant increase"}, {"measurement": "proliferation of transferred expanded cells after LM-OVA challenge", "setting": "OVA-specific TILs", "value": "better proliferation"}]}, {"molecule": "K-Ras(G12C) Inhibitor 9", "values": [{"measurement": "proliferation of CAR-T cells", "setting": "anti-GD2 CAR-T cells; 2 or 3 uM", "value": "facilitated the proliferation"}, {"measurement": "expression of inhibitory receptors (PD-1, LAG3, Tim-3 and CD39) of anti-GD2 CAR-T cells", "setting": "anti-GD2 CAR-T cells", "value": "decreased the expression of inhibitory receptors"}, {"measurement": "progenitor features of anti-GD2 CAR-T cells", "setting": "anti-GD2 CAR-T cells", "value": "increased progenitor features"}, {"measurement": "expression of inhibitory receptors (Tim-3+PD-1)", "setting": "OT-I splenocytes", "value": "decreased"}]}]}
